Results on 31 compounds are retold here after US10683269B2 (MISSION THERAPEUTICS LIMITED, priority 2016, dated 2020).

pIC50: −log10 of the molar value.

The experiment deals with T1, USP7 (Homo sapiens, UniProt Q93009).
T1 construct: The USP7 construct was PCR amplified and cloned into a pFLAG-CMV-6a vector (Sigma-Aldrich) with an N-terminal FLAG tag; made in house; host or cells: HEK293T
T1 sequence (Q93009 whole entry): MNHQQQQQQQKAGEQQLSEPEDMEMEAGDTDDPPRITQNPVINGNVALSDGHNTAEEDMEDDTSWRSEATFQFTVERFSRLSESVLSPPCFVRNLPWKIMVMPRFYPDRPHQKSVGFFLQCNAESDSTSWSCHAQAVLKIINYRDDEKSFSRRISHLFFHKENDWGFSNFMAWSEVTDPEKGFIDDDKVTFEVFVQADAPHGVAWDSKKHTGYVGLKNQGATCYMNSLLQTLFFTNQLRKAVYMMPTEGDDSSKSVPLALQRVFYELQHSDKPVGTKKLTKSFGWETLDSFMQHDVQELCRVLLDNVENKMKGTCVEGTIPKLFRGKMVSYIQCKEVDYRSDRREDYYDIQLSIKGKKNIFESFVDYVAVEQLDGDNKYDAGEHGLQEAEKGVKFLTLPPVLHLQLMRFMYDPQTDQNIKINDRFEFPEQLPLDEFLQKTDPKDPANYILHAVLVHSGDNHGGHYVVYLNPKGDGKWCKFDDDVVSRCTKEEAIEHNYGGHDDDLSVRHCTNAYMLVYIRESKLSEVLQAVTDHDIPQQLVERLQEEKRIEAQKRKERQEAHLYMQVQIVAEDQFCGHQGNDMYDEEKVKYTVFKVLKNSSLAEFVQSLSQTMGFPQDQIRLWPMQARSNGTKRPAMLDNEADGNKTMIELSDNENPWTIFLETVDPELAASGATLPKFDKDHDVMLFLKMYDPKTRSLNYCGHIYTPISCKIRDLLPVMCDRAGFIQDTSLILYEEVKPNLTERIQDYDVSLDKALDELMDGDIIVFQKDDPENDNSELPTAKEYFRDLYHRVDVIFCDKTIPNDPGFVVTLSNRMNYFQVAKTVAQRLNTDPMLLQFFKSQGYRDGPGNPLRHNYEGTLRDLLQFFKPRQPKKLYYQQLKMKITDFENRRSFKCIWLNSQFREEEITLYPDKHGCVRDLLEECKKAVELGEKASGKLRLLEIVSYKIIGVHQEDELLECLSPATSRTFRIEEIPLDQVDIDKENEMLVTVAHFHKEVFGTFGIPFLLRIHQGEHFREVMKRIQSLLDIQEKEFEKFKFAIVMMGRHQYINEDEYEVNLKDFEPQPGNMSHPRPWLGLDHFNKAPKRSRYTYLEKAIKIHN
Kind of experiment: USP7 biochemical IC50 assay (fluorescence polarisation, TAMRA labelled peptide linked to ubiquitin via an iso-peptide bond). To be noted: 30 min pre-incubation of enzyme and compound, read after 2 hr incubation at room temperature, read-out: IC50 range. The method in brief:
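Fluorescence polarisation at 540 nm excitation/590 nm emission, read immediately and after 2 hr at room temperature, following addition of 50 nM TAMRA-labelled iso-peptide ubiquitin substrate.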
A word on the pIC50: it is −log10 of the IC50, conventionally taken in molar units. Consider `N#CN1Cc2nc(NCCO)nc(-c3ccc(F)c(F)c3)c2C1` [Example 209, 4-(3,4-difluorophenyl)-2-((2-hydroxyethyl)amino)-5,7-dihydro-6H-pyrrolo[3,4-d]pyrimidine-6-carbonitrile], for which the pIC50 was 5.00 to 6.00. The figure for `CC(=O)Nc1cccc(-c2nc(NCCO)nc3c2CN(C#N)C3)c1` [Example 210, N-(3-(6-cyano-2-((2-hydroxyethyl)amino)-6,7-dihydro-5H-pyrrolo[3,4-d]pyrimidin-4-yl)phenyl)acetamide] is 5.00 to 6.00; for `COc1ccc(-c2nc(NCCO)nc3c2CN(C#N)C3)cc1` [Example 211, 2-((2-hydroxyethyl)amino)-4-(4-methoxyphenyl)-5,7-dihydro-6H-pyrrolo[3,4-d]pyrimidine-6-carbonitrile] it is above 6.00; for `CN1CCN(c2ccc(-c3nc(NCCO)nc4c3CN(C#N)C4)cc2)CC1` [Example 212, 2-((2-hydroxyethyl)amino)-4-(4-(4-methylpiperazin-1-yl)phenyl)-5,7-dihydro-6H-pyrrolo[3,4-d]pyrimidine-6-carbonitrile] it is 5.00 to 6.00. The figure for `CN(C)Cc1cc2c(c(-c3ccccc3)c1)CN(C#N)C2` [Example 213, 6-((dimethylamino)methyl)-4-phenylisoindoline-2-carbonitrile] is 5.00 to 6.00; for `CC(=O)NCc1cc2c(c(-c3ccccc3)c1)CN(C#N)C2` [Example 214, N-((2-cyano-7-phenylisoindolin-5-yl)methyl)acetamide] it is 5.00 to 6.00; for `COCCc1cc2c(c(-c3ccccc3)c1)CN(C#N)C2` [Example 215, 6-(2-methoxyethyl)-4-phenylisoindoline-2-carbonitrile] it is 5.00 to 6.00. With `CS(=O)(=O)Cc1cc2c(c(-c3ccc(C#N)cc3)c1)CN(C#N)C2` [Example 216, 4-(4-cyanophenyl)-6-((methylsulfonyl)methyl)isoindoline-2-carbonitrile], the pIC50 was 5.00 to 6.00. The figure for `CC(=O)NCc1cc2c(c(-c3ccc(C#N)cc3)c1)CN(C#N)C2` [Example 217, N-((2-cyano-7-(4-cyanophenyl)isoindolin-5-yl)methyl)acetamide] is 5.00 to 6.00; for `CC(=O)N(C)Cc1cc2c(c(-c3ccc(C#N)cc3)c1)CN(C#N)C2` [Example 218, N-((2-cyano-7-(4-cyanophenyl)isoindolin-5-yl)methyl)-N-methylacetamide] it is 5.00 to 6.00. The figure for `N#Cc1ccc(-c2cc(CNC(=O)C3CCOCC3)cc3c2CN(C#N)C3)cc1` [Example 219, N-((2-cyano-7-(4-cyanophenyl)isoindolin-5-yl)methyl)tetrahydro-2H-pyran-4-carboxamide] is 5.00 to 6.00; for `N#Cc1ccc(-c2cc(CNC(=O)C3CCS(=O)(=O)CC3)cc3c2CN(C#N)C3)cc1` [Example 220, N-((2-cyano-7-(4-cyanophenyl)isoindolin-5-yl)methyl)tetrahydro-2H-thiopyran-4-carboxamide 1,1-dioxide] it is 5.00 to 6.00; for `Cn1cc(C(=O)NCc2cc3c(c(-c4ccc(C#N)cc4)c2)CN(C#N)C3)cn1` [Example 221, N-((2-cyano-7-(4-cyanophenyl)isoindolin-5-yl)methyl)-1-methyl-1H-pyrazole-4-carboxamide] it is above 6.00. Take `CS(=O)(=O)NCc1cc2c(c(-c3ccc(C#N)cc3)c1)CN(C#N)C2` [Example 222, N-((2-cyano-7-(4-cyanophenyl)isoindolin-5-yl)methyl)methanesulfonamide]: the pIC50 is 5.00 to 6.00. Consider `CN(C)C(=O)NCc1cc2c(c(-c3ccc(C#N)cc3)c1)CN(C#N)C2` [Example 223, 3-((2-cyano-7-(4-cyanophenyl)isoindolin-5-yl)methyl)-1,1-dimethylurea], for which the negative logarithm of the IC50 (pIC50) is 5.00 to 6.00. The figure for `CC(C)OC(=O)NCc1cc2c(c(-c3ccc(C#N)cc3)c1)CN(C#N)C2` [Example 224, isopropyl ((2-cyano-7-(4-cyanophenyl)isoindolin-5-yl)methyl)carbamate] is 5.00 to 6.00; for `CC(=O)NCc1cc2c(c(-c3ccccc3C#N)c1)CN(C#N)C2` [Example 225, N-((2-cyano-7-(2-cyanophenyl)isoindolin-5-yl)methyl)acetamide] it is 5.00 to 6.00. The result for `CC(=O)NCc1cc2c(c(-c3ccc(C#N)cc3C#N)c1)CN(C#N)C2` [Example 226, N-((2-cyano-7-(2,4-dicyanophenyl)isoindolin-5-yl)methyl)acetamide] reads 5.00 to 6.00; that for `CNC(=O)NCc1cc2c(c(-c3ccc(C#N)cc3)c1)CN(C#N)C2` [Example 227, 1-((2-cyano-7-(4-cyanophenyl)isoindolin-5-yl)methyl)-3-methylurea], above 6.00; that for `CNC(=O)NCc1cc2c(c(-c3ccc(C#N)cc3C#N)c1)CN(C#N)C2` [Example 228, 1-((2-cyano-7-(2,4-dicyanophenyl)isoindolin-5-yl)methyl)-3-methylurea], 5.00 to 6.00. For `CNC(=O)NCc1cc2c(c(-c3ccccc3C#N)c1)CN(C#N)C2` [Example 229, 1-((2-cyano-7-(2-cyanophenyl)isoindolin-5-yl)methyl)-3-methylurea], the pIC50 is 5.00 to 6.00.

In the case of `N#Cc1ccc(-c2cc(CNc3ccn[nH]3)cc3c2CN(C#N)C3)cc1` [Example 230, 6-(((1H-pyrazol-5-yl)amino)methyl)-4-(4-cyanophenyl)isoindoline-2-carbonitrile], the negative logarithm of the IC50 (pIC50) was above 6.00. The figure for `N#Cc1cc2c(c(-c3ccccc3C(N)=O)c1)CN(C#N)C2` [Example 231, 2-(2,6-dicyanoisoindolin-4-yl)benzamide] is 5.00 to 6.00; for `CN(C)C(=O)c1cc2c(c(-c3ccc(C#N)cc3)c1)CN(C#N)C2` [Example 232, 2-cyano-7-(4-cyanophenyl)-N,N-dimethylisoindoline-5-carboxamide] it is 5.00 to 6.00; for `N#Cc1ccc(-c2cc(C(N)=O)cc3c2CN(C#N)C3)c(C#N)c1` [Example 233, 2-cyano-7-(2,4-dicyanophenyl)isoindoline-5-carboxamide] it is 5.00 to 6.00. Turning to `COc1ccc(C#N)c(-c2cc(C(N)=O)cc3c2CN(C#N)C3)c1` [Example 234, 2-cyano-7-(2-cyano-5-methoxyphenyl)isoindoline-5-carboxamide], the pIC50 is 5.00 to 6.00. The result for `N#Cc1cc(F)ccc1-c1cc(C(N)=O)cc2c1CN(C#N)C2` [Example 235, 2-cyano-7-(2-cyano-4-fluorophenyl)isoindoline-5-carboxamide] reads 5.00 to 6.00; that for `N#Cc1ccc(-c2cc(C(=O)N3CCS(=O)(=O)CC3)cc3c2CN(C#N)C3)cc1` [Example 236, 4-(4-cyanophenyl)-6-(1,1-dioxidothiomorpholine-4-carbonyl)isoindoline-2-carbonitrile], 5.00 to 6.00; that for `CNC(=O)c1cc2c(c(-c3ccc(C#N)cc3)c1)CN(C#N)C2` [Example 237, 2-cyano-7-(4-cyanophenyl)-N-methylisoindoline-5-carboxamide], 5.00 to 6.00. The result for `N#Cc1ccc(-c2cc(C(=O)NC3CCOCC3)cc3c2CN(C#N)C3)cc1` [Example 238, 2-cyano-7-(4-cyanophenyl)-N-(tetrahydro-2H-pyran-4-yl)isoindoline-5-carboxamide] reads 5.00 to 6.00; that for `CNC(=O)c1cc2c(c(-c3ccc(C#N)cc3C#N)c1)CN(C#N)C2` [Example 239, 2-cyano-7-(2,4-dicyanophenyl)-N-methylisoindoline-5-carboxamide], 5.00 to 6.00.
